# In patent publication US9562053B2, “Benzo-fused heterocyclic derivatives useful as agonists of GPR120” (Janssen Pharmaceutica NV, priority 2013, dated 2017):
# Molecular target: T1, Human GPR120 short form (Homo sapiens, UniProt Q5NUL3)
# T1 construct: expressed in transfected cells
# T1 sequence (Q5NUL3 1-361): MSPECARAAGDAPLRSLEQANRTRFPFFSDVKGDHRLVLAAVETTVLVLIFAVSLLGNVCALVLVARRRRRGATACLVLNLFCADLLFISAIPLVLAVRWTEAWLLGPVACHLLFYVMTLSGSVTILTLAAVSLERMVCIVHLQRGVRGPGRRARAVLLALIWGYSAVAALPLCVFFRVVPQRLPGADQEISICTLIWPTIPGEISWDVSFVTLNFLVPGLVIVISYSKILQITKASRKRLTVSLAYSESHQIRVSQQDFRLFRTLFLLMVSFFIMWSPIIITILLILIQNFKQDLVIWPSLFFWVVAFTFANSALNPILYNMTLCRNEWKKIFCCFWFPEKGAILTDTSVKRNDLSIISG
# Experiment: Human GPR120 in Calcium Flux Assay, Procedure Calcium A (2500 cells/well)
# Assay type: cell-based
# Excerpt: This in vitro assay serves to assess test compound agonist activity against the short splice variant (SVS with Accession number NM_001195755.1 confirmed by sequencing data) of the GPR120 receptor. The Human Short splice variant #2 (NM_001195755.1) is missing an in-frame coding exon compared to variant 1 (the Human Long splice variant NM_181745.3), resulting in a shorter isoform (GPR120-S) lacking a 16 aa protein segment compared to isoform GPR120-L. The assay platform utilizes HEK-293 cells stably transfected to express the Human GPR120 short form. These cells are first loaded with the Ca^+2 sensitive dye, Fluo-4 NW. Upon stimulation, intracellular released Ca^+2 can bind to the dye and alter its fluorescence intensity. This increase in fluorescence signal, and thus the flux in intracellular [Ca^+2], is detected and quantitated by fluorescence imaging using a FLIPR reader. The effect of the agonist is measured as a function of concentration and used to calculate an EC50 based upon a response curve.
# In this procedure 2500 cells/well were employed.
# A Human GPR120 clone (Genbank accession number NM_001195755.1) was placed into the pcDNA3.1 mammalian expression vector carrying the neomycin resistance gene. A stable mammalian cell was generated by placing the above clone into a HEK293 background. Clonal cells responding to long chain fatty acids had expression levels of GPR120 confirmed by RT-qPCR. Human HEK-GPR120 cells were cultured in Dulbecco's Modified Eagle's Medium (DMEM)/F12 medium supplemented with 10% fetal bovine serum (FBS), 1% L-Glutamine and 1% penicillin/streptomycin and 0.5 mg/ml G-418. Cells were split 2 times a week to keep the cells in the log-phase growth.
# In preparation for the assay, HEK cells stably transfected with Human GPR120 (2.5K cells per well in 25 uL growth medium) were seeded into 384-well plates and then incubated overnight (37° C., 5% CO2). The next day, the media was changed to 20 μl assay buffer and the cell starved for 1 h at 37° C. The dye loading solution (2× dye) was prepared using 10 ml assay buffer, 100 μl of 250 mM probenecid, 1 bottle of Component A, and 20 μl of dye in DMSO. Twenty μl of the 2× dye loading buffer was then added to each well. The plates were incubated at 37° C. for 30 min, then at room temperature for an additional 15 minutes, before performing the assay on FLIPR.
# Test compounds were prepared in assay buffer (2 μl of test compound+198 μl assay buffer, final DMSO in assay plate is 0.2%) at the desired concentration, more particularly at 100 μM, 50 μM, 25 μM, 12.5 μM, 6.25 μM, 3.125 μM, 1.562 μM, 0.781 μM, 0.391 μM, 0.195 μM, 0.098 μM, 0.049 μM, 0.024 μM and 0.012 μM.
# The assay was performed on a FLIPR plate reader using the following parameters. Baseline was read for 10 seconds at 1 sec intervals. The program was set to transfer 10 μL of ligand from compound plate to cell plate after baseline reading. Aspiration was executed at: 10 μl/sec speed, 4.6 μl height; Dispensing was executed at: 30 μl/sec speed, 45 μl height. After compound addition, each well was read for 300 sec, with measurements collected at 1 sec intervals.
# The kinetic data from the FLIPR was based upon a 5 minute window for data collection. The fluorescence of each sample well was used for individual calculations of a normalized RFU value, which was defined as maximum response minus the minimum response. The normalized fluorescence reading (RFU) was calculated as follows: RFU=Fmax−Fmin
# The data were fitted to a sigmoidal dose-response curve with a variable Hill slope (<2) using nonlinear regression with GraphPad Prism 5.0 to calculate the EC50 values. The Fitting Equation was: Y=Bottom+(Top−Bottom)/(1+10^((LogEC50−X)*HillSlope)), where X is the log of the concentration and Y is the response.
row,Compound,EC50
1,"Cc1cc2cc(CCCS(C)(=O)=O)cc(COc3ccc(CCC(=O)O)c(C)c3C)c2o1 [Compound 100, 3-[2,3-Dimethyl-4-({2-methyl-5-[3-(methylsulfonyl)propyl]-1-benzofuran-7-yl}methoxy)phenyl]propanoic acid]",> 5000 nM
2,"CCc1cc2cc(F)cc(COc3cc(C)c(CCC(=O)O)cn3)c2o1 [Compound 33, 3-{6-[(2-Ethyl-5-fluoro-1-benzofuran-7-yl)methoxy]-4-methylpyridin-3-yl}propanoic acid]",1110 nM
3,"Cc1nc2c(COc3ccc(CCC(=O)O)c(C)c3C)cc(Cl)cc2o1 [Compound 95, 3-{4-[(6-Chloro-2-methyl-1,3-benzoxazol-4-yl)methoxy]-2,3-dimethylphenyl}propanoic acid]",134 nM
4,"CCc1cc2cc3c(c(COc4ccc(CCC(=O)O)c(C)c4C)c2o1)CC(C)(C)O3 [Compound 30, 3-{4-[(6-Ethyl-2,2-dimethyl-2,3-dihydrobenzo[1,2-b:4,5-b′]difuran-4-yl)methoxy]-2,3-dimethylphenyl}propanoic acid]",759 nM
5,"CCCc1cc2cc(Cl)cc(COc3cc(C)c(CCC(=O)O)cn3)c2o1 [Compound 34, 3-{6-[(5-Chloro-2-propyl-1-benzofuran-7-yl)methoxy]-4-methylpyridin-3-yl}propanoic acid]",1020 nM
6,"Cc1cc2c(COc3ccc(CCC(=O)O)c(C)c3C)cc(Cl)cc2s1 [Compound 101, 3-{4-[(6-Chloro-2-methyl-1-benzothiophen-4-yl)methoxy]-2,3-dimethylphenyl}propanoic acid]",3200 nM
7,"Cc1cc2c(COc3c(F)cc(CCCO)cc3F)cc(Cl)cc2s1 [Compound 103, 3-{4-[(6-Chloro-2-methyl-1-benzothiophen-4-yl)methoxy]-3,5-difluorophenyl}propan-1-ol]",3000 nM
8,"Cc1cc2cc(Cl)cc(COc3c(F)cc(CCC(=O)O)cc3F)c2s1 [Compound 92, 3-{4-[(5-Chloro-2-methyl-1-benzothiophen-7-yl)methoxy]-3,5-difluorophenyl}propanoic acid]",417 nM
9,"Cc1cc2cc(C#CCS(C)(=O)=O)cc(COc3ccc(CCC(=O)O)c(C)c3C)c2o1 [Compound 99, 3-[2,3-Dimethyl-4-({2-methyl-5-[3-(methylsulfonyl)prop-1-yn-1-yl]-1-benzofuran-7-yl}methoxy)phenyl]propanoic acid]",> 5000 nM
10,"Cc1oc2c(COc3c(Br)cc(CCC(=O)O)c(C)c3C)cc(OC(F)(F)F)cc2c1Br [Compound 120, 3-(5-Bromo-4-{[3-bromo-2-methyl-5-(trifluoromethoxy)-1-benzofuran-7-yl]methoxy}-2,3-dimethylphenyl)propanoic acid]",1540 nM
11,"Cc1cc2c(COc3c(F)cc(CCC(=O)O)cc3F)cc(Cl)cc2s1 [Compound 102, 3-{4-[(6-Chloro-2-methyl-1-benzothiophen-4-yl)methoxy]-3,5-difluorophenyl}propanoic acid]",> 5000 nM
12,"Cc1c(CCC(=O)O)ccc(OCc2cc(F)cc3cc(Cc4ccccc4)oc23)c1C [Compound 20, 3-{4-[(2-Benzyl-5-fluoro-1-benzofuran-7-yl)methoxy]-2,3-dimethylphenyl}propanoic acid]",5290 nM

# More lines, now with the values ahead:
row,EC50,Compound
1,1680 nM,"Cc1c(CCC(=O)O)ccc(OCc2cc(F)cc3cc(CC4CCCC4)oc23)c1C [Compound 19, 3-(4-{[2-(Cyclopentylmethyl)-5-fluoro-1-benzofuran-7-yl]methoxy}-2,3-dimethylphenyl)propanoic acid]"
2,424 nM,"COCCc1cc2cc(F)cc(COc3ccc(CCC(=O)O)c(C)c3C)c2o1 [Compound 10, 3-(4-{[5-Fluoro-2-(2-methoxyethyl)-1-benzofuran-7-yl]methoxy}-2,3-dimethylphenyl)propanoic acid]"
3,673 nM,"CCc1cc2cc(OC(F)(F)F)cc(COc3cc(CC(C)C)c(CCC(=O)O)cc3F)c2o1 [Compound 53, 3-[4-{[2-Ethyl-5-(trifluoromethoxy)-1-benzofuran-7-yl]methoxy}-5-fluoro-2-(2-methylpropyl)phenyl]propanoic acid]"
4,2750 nM,"Cc1c(CCC(=O)O)ccc(OCc2cc(F)cc3cc(CCC(C)C)oc23)c1C [Compound 9, 3-(4-{[5-Fluoro-2-(3-methylbutyl)-1-benzofuran-7-yl]methoxy}-2,3-dimethylphenyl)propanoic acid]"
5,392 nM,"CCc1cc2cc(OC(F)(F)F)cc(COc3cc(CCC(C)C)c(CCC(=O)O)cc3F)c2o1 [Compound 51, 3-[4-{[2-Ethyl-5-(trifluoromethoxy)-1-benzofuran-7-yl]methoxy}-5-fluoro-2-(3-methylbutyl)phenyl]propanoic acid]"
6,1410 nM,"CCc1cc2cc(C#N)cc(COc3ccc(CCC(=O)O)c(C)c3C)c2o1 [Compound 123, 3-(4-((5-cyano-2-ethylbenzofuran-7-yl)methoxy)-2,3-dimethylphenyl)propanoic acid]"
7,28 nM,"C#Cc1cc(COc2ccc(CCC(=O)O)c(C)c2C)c2oc(CCC)cc2c1 [Compound 38, 3-{4-[(5-Ethynyl-2-propyl-1-benzofuran-7-yl)methoxy]-2,3-dimethylphenyl}propanoic acid]"
8,4750 nM,"Cc1c(CCC(=O)O)ccc(OCc2cc(F)cc3cc(CCO)oc23)c1C [Compound 15, 3-(4-{[5-Fluoro-2-(2-hydroxyethyl)-1-benzofuran-7-yl]methoxy}-2,3-dimethylphenyl)propanoic acid]"
9,1320 nM,"Cc1c(CCC(=O)O)ccc(OCc2cc(F)cc3cc(CO)oc23)c1C [Compound 14, 3-(4-{[5-Fluoro-2-(hydroxymethyl)-1-benzofuran-7-yl]methoxy}-2,3-dimethylphenyl)propanoic acid]"
10,274 nM,"Cc1c(CCC(=O)O)ccc(OCc2cc(OC(F)(F)F)cc3cc(CCO)oc23)c1C [Compound 94, 3-(4-{[2-(2-Hydroxyethyl)-5-(trifluoromethoxy)-1-benzofuran-7-yl]methoxy}-2,3-dimethylphenyl)propanoic acid]"
